What was measured:
Total-MPT inclusive Moco = assay: MPT content in liver after last injection; type: in vivo, mice
Procedure: FIG. 6: Restoration of the MPT-biosynthesis in vitro and in vivo. (a) In vitro restoration of MOCS1-deficient liver extracts with precursor Z. Protein raw extract of a five day old MOCS1^−/− were incubated (1 h) with the indicated amounts of purified precursor Z per mg protein. Restoration of MPT-synthesis was measured by means of nit-1 reconstitution assay. (b-d) Biochemical analysis of precursor Z treated MOCS1-deficient animals. The mice were twice weekly injected with increasing amounts of precursor Z, beginning with 2 μg after birth and up to 8 μg after weaning. Between the days 25-55 after birth the treatment was stopped. On day 0 (4 hours after the last injection), 1, 4 and 7 respectively, two mice were sacrificed. Two liver samples of each animal were removed and separately further processed. Each value in the figure was thus determined four times. […]
In homozygote MOCS1^−/−-animals, in which precursor Z was injected regularly and which appeared normal with regard to weight, appearance and behavior, the treatment was halted and the animals were sacrificed sequentially at days 0, 1, 4 and 7 after the last injection in order to determine the MPT-content and the Mo-enzyme activity in the liver (FIG. 6b-d). Due to the rapid conversion of the administered precursor Z to MPT, the highest MPT-value was measured on the day of the injection (16±1% of the wildtype; FIG. 6b). […]

MOCS1-deficient mice [1] = assay: Cessation or delayed initiation of precursor Z treatment; type: in vivo
From the text: In order to test whether the treatment with precursor Z can be halted after a certain developmental stage, we stopped the injection of precursor Z in homozygouse mutants on days 1 (n=3), 12 (n=4), 26-28 (n=3) and 64-68 (n=2) after birth. A single injection of precursor Z after day one led to death after 15-18 days. […] At the age of 26-28 days, in which the previously described critical period falls, the cessation of administration of precursor Z led to death within 4-7 days. Cessation after 64-68 days led to reduced exploration of the environment after 7 days and to death after 9-10 days. In order to successfully correct the phenotype, the administration with precursor Z had to be initiated within 5 days following birth.

[2] = Oxidation of precursor Z to compound Z in 2x PBS buffer, UV-VIS; type: physicochemical
Procedure: (a) Oxidation of precursor Z to compound Z. (b) UV-VIS absorption spectrum of 22 μM precursor Z after 17 h incubation at room temperature in 2× PBS-Buffer (pH 6.9). The spectra were recorded and indicated in time intervals following dilution in Buffer. (c) […] of oxidation of precursor Z by recording the absorption at 350 nm from the spectra shown in (b).
In order to obtain larger amounts, we used a bacterial strain, which enriched precursor Z on the basis of a defect in the conversion to MPT. A further improvement in the yield could be achieved by over expression of the protein MoaA and MoaC, which catalyse the first step of Moco-synthesis. This leads to an approximately 5000-fold enrichment of precursor Z in comparison to wild type cells, with an average yield of 40 μg per L E. coli culture and a final concentration of 30-140 μg/ml. […] Under physiological and aerobic conditions at pH 6.9 (2×PBS buffer) a 22 μM solution of precursor Z was oxidized within 5 h completely to compound ZBe^9. The half time of precursor Z at pH 6.9 could be determined with 62±12 (FIG. 5c).

MOCS1-deficient mice [3] = assay: Morphologic examination of tissues of treated knockout mice; type: in vivo
Procedure: FIG. 8: Morphologic comparison of kidneys (a, b) and brain sections (c,d) of wildtype- (a,c) and precursor Z-treated MOCS1-deficient mice, (b,d). Treatment was with 2-4 μg each third day. (a) Regular kidneys with normal glomerulus (arrow), characteristic developed tubuli and thin (narrow) interstices (200×). […] Proximal tubuli were extended (28+/−19%). […] The glomerulus is normal (arrow). (c,d) Corresponding coronal brain sections (Cx, Cortex; Hi, Hippocampus; Str, Striatum; Th, Thalamus; Hy, Hypothalamus) of wildtype-(c) and precursor Z-treated MOCS1^−/− mice (d).
Tissue from heart, skeletal muscle, lung, pancreas, thyroid, spleen and liver (data not shown) as well as brain (FIG. 8c-d) were examined.

E. coli MPT-Synthase = E. coli MPT-Synthase (Escherichia coli, UniProt P30749); assay: In vitro conversion of precursor Z to MPT with purified MPT-synthase; type: biochemical; conditions: double excess of MPT-synthase, HPLC formA analysis
E. coli MPT-Synthase, sequence (P30749 whole entry): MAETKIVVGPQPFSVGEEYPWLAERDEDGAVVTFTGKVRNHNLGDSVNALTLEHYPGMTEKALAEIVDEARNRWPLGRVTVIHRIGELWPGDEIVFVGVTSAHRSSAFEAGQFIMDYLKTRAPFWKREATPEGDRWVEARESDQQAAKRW
E. coli MPT-Synthase, sequence (P30748 whole entry, further chain): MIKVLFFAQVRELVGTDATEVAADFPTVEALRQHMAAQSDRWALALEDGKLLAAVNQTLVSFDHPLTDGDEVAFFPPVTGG
From the text: The biological activity of the purified precursor Z could be verified by a quantitive in vitro conversion to MPT tinder use of purified E. coli MPT-Synthase^B26 . […] In order to determine the amount of precursor Z needed for a successful reestablishment of Moco-biosynthesis in MOCS1-deficient mice, we carried out an in vitro reconstitution with various amount of precursor Z in protein-raw extract from the liver of five day old MOCS1-deficient mice carried out (FIG. 6a). In the case of the employment of 134 ng precursor Z/mg protein a near complete reestablishment of Moco-biosynthesis could be achieved, while 27 ng precursor Z led to a reconstitution of approximately 50%. The protein total concentration of the liver extract amounted to 6 mg (obtained from 50 mg total liver tissue) which necessitated a total required amount of precursor Z of 0.8 μg for each animal for complete reestablishment of the MPT-synthesis under in vitro conditions. Accordingly for an adult animal with a body weight of 20 g and an approximate mass or weight of the liver of 1 g, 16 μg precursor Z was needed for complete reestablishment, however only 3 μg for an activation of 50%. […]

[4] = tested on: MPT-synthesis in MOCS1-deficient liver extracts; assay: In vitro reconstitution of MOCS1-deficient liver extract, nit-1 reconstitution assay; type: biochemical, mice
Procedure: FIG. 6: Restoration of the MPT-biosynthesis in vitro and in vivo. (a) In vitro restoration of MOCS1-deficient liver extracts with precursor Z. Protein raw extract of a five day old MOCS1^−/− were incubated (1 h) with the indicated amounts of purified precursor Z per mg protein. Restoration of MPT-synthesis was measured by means of nit-1 reconstitution assay. (b-d) Biochemical analysis of precursor Z treated MOCS1-deficient animals. The mice were twice weekly injected with increasing amounts of precursor Z, beginning with 2 μg after birth and up to 8 μg after weaning. Between the days 25-55 after birth the treatment was stopped. On day 0 (4 hours after the last injection), 1, 4 and 7 respectively, two mice were sacrificed. Two liver samples of each animal were removed and separately further processed. Each value in the figure was thus determined four times. Total-MPT inclusive Moco (b), sulphite oxidase activity (c) and xanthine dehydrogenase (d) are indicated as percentage of the corresponding wildtype value (n=4).
The biological activity of the purified precursor Z could be verified by a quantitive in vitro conversion to MPT tinder use of purified E. coli MPT-Synthase^B26 . […] In order to determine the amount of precursor Z needed for a successful reestablishment of Moco-biosynthesis in MOCS1-deficient mice, we carried out an in vitro reconstitution with various amount of precursor Z in protein-raw extract from the liver of five day old MOCS1-deficient mice carried out (FIG. 6a). In the case of the employment of 134 ng precursor Z/mg protein a near complete reestablishment of Moco-biosynthesis could be achieved, while 27 ng precursor Z led to a reconstitution of approximately 50%. The protein total concentration of the liver extract amounted to 6 mg (obtained from 50 mg total liver tissue) which necessitated a total required amount of precursor Z of 0.8 μg for each animal for complete reestablishment of the MPT-synthesis under in vitro conditions. Accordingly for an adult animal with a body weight of 20 g and an approximate mass or weight of the liver of 1 g, 16 μg precursor Z was needed for complete reestablishment, however only 3 μg for an activation of 50%. […] Although the in vitro titration experiment yielded no information regarding which part of the Moco is transmitted to the Apo-sulfhite-oxidase, the investigated or established amount of precursor Z related to the maximal capacity of the MPT-production in the liver of MOCS1-deficient mice.

[5] = adult animal, body weight 20 g, liver 1 g

For `Nc1nc2c(c(=O)[nH]1)N[C@@H]1[C@H](N2)O[C@@H]2COP(=O)(O)O[C@@H]2C1(O)O` [precursor Z], the MPT-value in liver (Total-MPT inclusive Moco; day of the injection (day 0, 4 hours after the last injection)) was 16±1 % of the wildtype, the MPT-content in liver (Total-MPT inclusive Moco; within the following four days after last injection) was “less than 4 % of the wildtype value” and the death after cessation (MOCS1-deficient mice [1]; cessation after 64-68 days) was 9 to 10 days. For the same molecule, the “onset of reduced exploration of the environment after cessation” value (MOCS1-deficient mice [1]; cessation after 64-68 days) was 7 days, the death after cessation (MOCS1-deficient mice [1]; cessation at the age of 26-28 days) was 4 to 7 days and the “death after the last injection” value (MOCS1-deficient mice [1]; cessation on day 12) was 7 to 9 days. For the same molecule, the “onset of limited exploration of the environment after the last injection” value (MOCS1-deficient mice [1]; cessation on day 12) was 6 days, the “improvement of the phenotype or the life expectancy” value (MOCS1-deficient mice [1]; initiation of treatment after 7 or 10 days) was “no significant improvement” and the “time after birth within which administration had to be initiated to correct the phenotype” value (MOCS1-deficient mice [1]; mouse, in vivo) was no more than 5 days. The time of death (MOCS1-deficient mice [1]; single injection, treatment stopped on day 1) was 15 to 18 days, the “stability under physiological conditions” value ([2]; 2x PBS-Buffer pH 6.9, room temperature) was “stable under physiological conditions” and the “half time of precursor Z” value ([2]; pH 6.9, 2xPBS buffer, aerobic, 22 μM, room temperature) was 62±12. For the same molecule, the “time to complete oxidation to compound Z” value ([2]; pH 6.9, 2xPBS buffer, physiological and aerobic conditions, 22 μM solution) was no more than 5 h, the “enlargement of the matrix of the interstices” value (MOCS1-deficient mice [3]; 2-4 μg each third day) was 13+/−13% and the “extension of proximal tubuli” value (MOCS1-deficient mice [3]; 2-4 μg each third day) was 28+/−19%. For the same molecule, the kidney stones (MOCS1-deficient mice [3]; 2-4 μg each third day) was “numerous stones in the tubuli”, the kidney morphology (MOCS1-deficient mice [3]; beginning day 20 after birth) was “bilateral abnormal kidneys” and the morphology besides kidney (MOCS1-deficient mice [3]; heart, skeletal muscle, lung, pancreas, thyroid, spleen, liver, brain) was “no further morphologic abnormality”. For the same molecule, the “conversion of precursor Z into MPT” value (E. coli MPT-Synthase) was “almost completely”, the reconstitution ([4]; 27 ng precursor Z, liver extract of five day old MOCS1-deficient mice, 1 h) was “approximately 50%” and the “reestablishment of Moco-biosynthesis” value ([4]; 134 ng precursor Z/mg protein, liver extract of five day old MOCS1-deficient mice, 1 h) was “near complete”. For the same molecule, the “amount of precursor Z needed for an activation of 50%” value [4, 5] was 3 µg and the “amount of precursor Z needed for complete reestablishment” value [4, 5] was 16 µg.

Source: patent US7504095B2, “Method for obtaining precursor Z and use thereof for the production of a means for therapy of human molybdenum cofactor deficiency” (Technische Universitaet Braunschweig, priority 2004, dated 2009)
